Experiments:
[1] = system: Immature Swiss-Webster female mice (uterine weight); experiment: Uterotrophic assay for estrogenic activity in immature mice; type: in vivo, mouse (Swiss-Webster)
Text: (§1) The biological evaluation of the test compounds consisted of the in vitro rat cytosolic estradiol receptor binding assay, the in vivo immature mouse uterotrophic (estrogenic) and antiuterotrophic (antiestrogenic) assays, and the in vitro suppression of the proliferation of the ER positive MCF-7 human breast cancer cell line.
(§2) Vital-free immature female Swiss-Webster mice were obtained at 17-19 days of age from Sasco weighing 8-10 g, and were used in the uterotrophic and antiuterotrophic assays. Immature female Sprague-Dawley rats, obtained at 17-19 days of age from Sasco, weighing 28-33 g, were used as sources of uteri for the estradiol receptor binding assay. Animals were housed in wire topped polycarbonate cages at six animals per cage, with the environment controlled at 25° C. and a 12 h light/dark cycle. The animals received a diet of Wayne Lab Blox rodent chow and tap water ad libitum.
Immature Swiss-Webster female mice (8-15 g) at 17-19 days of age were used. Estradiol was used in the dosage range of […] (total dose) as the assay standard. Each cyclopropyl analogue was examined at doses of 5, 25, and 100 μg (total dose). […] Estrogenic activity was measured as an increase in uterine weight produced by each test compound.

[2] = system: Immature Swiss-Webster female mice (estradiol-stimulated uterine weight); experiment: Antiuterotrophic assay for antiestrogenic activity in immature mice; type: in vivo, mouse (Swiss-Webster); conditions: 0.4, 0.8, and 1.6 mg; three-day assay; estradiol 0.03 μg
Text: as §1
as §2, with “The animals received a diet of Wayne Lab Blox rodent chow and tap water ad libitum.” left out
The antiestrogenic assay was conducted as described for the estrogenic assay, except that each mouse in the cyclopropyl treatment groups received a standard stimulating dose of estradiol (0.03 μg) in sesame oil (0.1 mL) and the test compounds or MER 25 were administered in isopropyl myristate (0.05 mL) in a dosage range of 0.4, 0.8 and 1.6 mg (total dose). […] Antiestrogenic activity was measured as a decrease in the estradiol-stimulated […] response in groups that received both the test compound and estradiol as compared to the group treated only with estradiol.

## Oc1ccc(C2(c3ccc(O)cc3)C(Cl)(Cl)C23CCCCC3)cc1 [Compound 30, 1,1-Dichloro-2,2-bis-(p-hydroxyphenyl)-spiro[2.5]octane]
[1]; doses of 5, 25 and 100 μg (total dose)
  uterine weight response (estrogenic activity, in words): dose-dependent increase in uterine weight
[1]; of that of estradiol, doses of 5, 25, and 100 μg
  relative potency (uterotrophic) versus estradiol: 0.05%
[2]
  antiestrogenic activity: effect on estradiol-induced uterine weight gain (in words): augmented uterotrophic effects beyond the stimulating dose of estradiol

Reference: patent publication US5663207A, “Gem-dichlorocyclopropanes as antitumor agents” (priority 1995, dated 1997)
